Results as given in PubChem BioAssay AID651892 (Broad Institute, 2012).
Activity calls are given as the source filed them.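 Rule for the calls: active = IC50 below three times the IC50 of the reference antileishmanial control drug; inactive = the rest.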

System: L. donovani axenic amastigotes, Alamar Blue fluorescence, 72 h
Assay: antileishmanial activity on axenic amastigotes – plate reader, dry powder, dose response (AID 651892)

## C[C@@H]1CN([C@@H](C)CO)C(=O)c2cccc(NC(=O)c3ccncc3)c2O[C@H]1CN(C)Cc1ccc(Oc2ccccc2)cc1
  IC50: 40.5 µM (inactive)
